Experiments:
T-cell hybridomas [1] = experiment: FVIII peptide specificity of T cell hybridomas generated from FVIII-/- HLA-DR2+ mice (IL-2 production); format: cell-based; conditions: of 19 hybridomas specific for factor VIII; factor VIII deficient HLA-DR2 mice
From the text: Factor VIII deficient mice expressing HLA-DR2 were immunised with factor VIII in adjuvant. Spleen cells from the immunised mice were restimulated in vitro with factor VIII and the resulting lymphoblasts were fused with BW5147, as described above. T-cell hybridomas were screened for their response to the 12 predicted peptides. Yet again, the majority of hybridomas responded to peptides DNIMV (SEQ ID NO:72) and PRCLT (SEQ ID NO:70). Of 19 hybridomas specific for factor VIII, 10 responded to DNIMV (SEQ ID NO:72), 6 to PRCLT (SEQ ID NO:70), 1 to PPIIA (SEQ ID NO:65), 1 to SLYIS (SEQ ID NO:64) and 1 to DTLLI (SEQ ID NO:69).
(§1) HLA-DR2+ murine MHC class II null mice were immunised as above. On day 10 draining lymph nodes were removed and lymphocytes cultured at 2.5×10^6 cells/ml, 1 ml/well in 24 well plates in the presence of 20 μg/ml rhFVIII for 3 days. Following this stimulation, lymphocytes were recovered, washed and fused with TCRα^−β^− BW fusion partner cells at a ratio of 4 BW cells to 1 lymphocyte, using polyethylene glycol as described by Nelson et al (1980) PNAS 77(5):2866. Fused cells were carefully washed and then plated out in flat bottomed 96 well plates for 2 days before the addition of HAT medium to select for T cell hybridomas. Cells were monitored for growth and approximately 10 days after fusions were performed, individual clones were selected and transferred to 24 well plates in HAT medium. Clones were maintained in HAT medium for at least 2 weeks before being weaned into HT medium and then complete medium. Clones were tested for antigenic specificity by culturing 100 μl of hybridoma cells with 5×10^4 Mgar cells in the presence and absence of 20 μg/ml rhFVIII overnight. Supernatants were then collected and assessed for IL-2 production by ELISA, with clones producing IL-2 in response to rhFVIII being considered positive for FVIII-specificity. To investigate the repertoire of predicted FVIII peptides FVIII-specific clones were again tested for IL-2 production, following overnight incubation with 20 μg/ml of each of the 12 peptides.
The same method was followed as for (ii), except the mice were FVIII-deficient and HLA-DR2+.

[2] = test system: HLA-DR2 restricted cells from factor VIII immunised mice; experiment: Recall responses (proliferation) of lymph node cells from FVIII+DR2+ mice primed with rhFVIII/CFA to FVIII peptides; format: cell-based; conditions: FVIII+DR2+ mice immunised with human factor VIII in adjuvant; LNC restimulated in vitro with peptide; FIG. 1
T-cell hybridomas [3] = experiment: FVIII peptide specificity of T cell hybridomas generated from DR2+ mice (IL-2 production); format: cell-based; conditions: for Number of hybridomas responding to peptide: of the 27 hybridomas screened, HLA-DR2 mice, 20 μg/ml peptide, IL-2
From the text: HLA-DR2 mice were first immunised with factor VIII in adjuvant. Spleen cells from immune mice were restimulated in vitro with factor VIII and the resulting lymphoblasts were fused with the BW5147 thymoma using polyethylene glycol.
T-cell hybridomas were selected in HAT medium and the hybridomas cloned and tested for their response to factor VIII. The hybridomas were then screened for their response to the 12 predicted peptides.
as §1

[4] = test system: fixed Mgar cells / FVIII-/- T cell hybridoma clones; experiment: Presentation by fresh or fixed Mgar cells to hybridoma clones (antigen processing-independent presentation, IL-2 ELISA); format: cell-based; conditions: 20 μg/ml, overnight, Mgar cells fresh or fixed with 1% paraformaldehyde, IL-2 by ELISA; FIG. 5
Method: In order to be an antigen processing-independent epitope, a peptide must be capable of binding to an MHC class I or II molecule without further antigen processing (i.e. trimming) and be presented to a T cell. In the present case, the capacity of peptides to be presented by fixed APC was investigated.
Mgar cells were either fresh or fixed with 1% paraformaldehyde. Clones were tested for antigenic specificity by culturing 100 μl of hybridoma cells with 5×10^4 Mgar cells in the presence and absence of 20 μg/ml rhFVIII or peptide epitopes overnight. Supernatants were then collected and assessed for IL-2 production by ELISA.

[5] = test system: lymph node cells from FVIII-DR2+ mice; experiment: Recall responses of lymph node cells from FVIII-DR2+ mice primed with rhFVIII/CFA to the peptide panel; format: cell-based; conditions: FVIII-DR2+ animals immunised with factor VIII in adjuvant; FIG. 3
From the text: HLA-DR2 transgenic mice were crossed with factor VIII deficient mice to create a model of haemophilia expressing the human HLA class II MHC molecule.
These FVIII-DR2+ animals were immunised with factor VIII in adjuvant. Draining lymph nodes were isolated and tested for their response to the peptide panel.
The same method was followed as for (i), except the mice were FVIII-deficient, HLA-DR2+ and murine MHC class II null.

HLA-DR2 transgenic mice = experiment: Tolerisation of FVIII-specific responses in DR2+ mice by pre-treatment with peptide; format: in vivo; conditions: 3x i.p. 100 μg peptide prior to priming with rhFVIII/CFA, vs PBS, FIG. 6
Method: HLA-DR2 transgenic mice were treated with either of the two soluble peptides, or PBS as a control, prior to immunisation with factor VIII in adjuvant. Draining lymph nodes were isolated and the cells restimulated in vitro with factor VIII protein in order to assess the immune status of the mice.
HLA-DR2+ murine MHC class II null mice were treated 3 times with 100 μg of DNIMV (SEQ ID NO:72), PRCLT (SEQ ID NO:70) or PPIIA (SEQ ID NO:65) dissolved in PBS, or the equivalent volume of PBS alone. Peptides were administered intraperitoneally, with 3-4 days between each dose. Following the final administration, mice were primed with rhFVIII emulsified in complete Freunds adjuvant as for (i). 10 days later, draining lymph nodes were recovered and lymphocytes subsequently cultured in vitro with rhFVIII, or each of the tolerising peptides as well as control antigens, for 72 hours before the addition of tritiated thymidine as for (i).

DTLLIIFKNQASRPY
Number of hybridomas responding to peptide (T-cell hybridomas [1]): 1

PRCLTRYYSSFVNME
Response of lymph node cells to peptide (LNC proliferation) [2]: responses
Number of hybridomas responding to peptide (T-cell hybridomas [3]): 3
Presentation by live and fixed Mgar cells [4]: presented by both live and fixed Mgar cells
Response of lymph node cells to peptide [5]: responded well
Immune response to factor VIII after peptide pre-treatment (LNC recall response) (HLA-DR2 transgenic mice): substantial suppression of the immune response to factor VIII
Number of hybridomas responding to peptide (T-cell hybridomas [1]): 6

PPIIARYIRLHPTHY [FVIII first AA 2161]
Response of lymph node cells to peptide (LNC proliferation) [2]: responses
Quality of hybridoma response to peptide (T-cell hybridomas [3]; HLA-DR2 mice hybridomas): weaker and less specific
Number of hybridomas responding to peptide (T-cell hybridomas [3]): 3
Number of hybridomas responding to peptide (T-cell hybridomas [1]): 1

SLYISQFIIMYSLDG [FVIII first AA 2114]
Number of hybridomas responding to peptide (T-cell hybridomas [1]): 1

RYLRIHPQSWVHQIA [FVIII first AA 2322]
Response of lymph node cells to peptide [5]: significant response

DNIMVTFRNQASRPY
Response of lymph node cells to peptide (LNC proliferation) [2]: respond strongly
Number of hybridomas responding to peptide (T-cell hybridomas [3]): 11
Presentation by live and fixed Mgar cells [4]: presented by both live and fixed Mgar cells
Response of lymph node cells to peptide [5]: responded well
Immune response to factor VIII after peptide pre-treatment (LNC recall response) (HLA-DR2 transgenic mice): substantial suppression of the immune response to factor VIII
Number of hybridomas responding to peptide (T-cell hybridomas [1]): 10

GTLMVFFGNVDSSGI [FVIII first AA 2140]
Response of lymph node cells to peptide [5]: weak response
